For 93 molecules, outcome and PGE2 EC50 with compound results are on record in PubChem BioAssay AID1421 (Emory University Molecular Libraries Screening Center, 2008).

The source made the active and inactive calls. The rule behind the calls is not given here.

Prostaglandin E2 receptor EP2 subtype (Homo sapiens), sequence (P43116 whole entry, looked up): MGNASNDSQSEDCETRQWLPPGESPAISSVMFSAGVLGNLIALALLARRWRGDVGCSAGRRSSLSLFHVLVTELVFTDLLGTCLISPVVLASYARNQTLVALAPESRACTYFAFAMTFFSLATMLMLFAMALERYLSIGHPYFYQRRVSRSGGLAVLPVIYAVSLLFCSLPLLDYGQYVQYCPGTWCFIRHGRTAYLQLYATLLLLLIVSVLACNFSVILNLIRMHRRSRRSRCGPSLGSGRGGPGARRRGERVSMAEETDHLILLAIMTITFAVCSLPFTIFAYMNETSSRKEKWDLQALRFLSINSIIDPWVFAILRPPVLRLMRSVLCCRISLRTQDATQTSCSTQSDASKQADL

One experiment has as its target Prostaglandin E2 receptor EP2 subtype (Homo sapiens) (UniProt P43116). Briefly: compounds shifting PGE2 potency at EP2 – cell-based, human EP2, PGE2 EC50 shift, dose response (AID 1421). As to conditions: EP2-expressing cells, PGE2 EC50 shift by compound.
Turning to `CCOC(=O)C1CCN(c2c(-c3ccccc3)c3cc(Cl)ccc3[nH]c2=O)CC1`, the result was active. On the same count and under the same terms, as for `CCCn1c2ccccc2c2nc3ccccc3nc21`, the entry is “active”; as for `Cn1cccc1/C=C1\CC(C(C)(C)C)C/C(=C\c2cccn2C)C1=O` (stereo not given), “active”; as for `CCc1ccccc1NC(=O)/C(=C/c1ccccc1)c1ccccc1`, “active”. Regarding `Cc1ccc(CSc2ncnc3c2cnn3Cc2ccccc2)cc1C`, the result was active. On to `Cc1noc(C)c1CSc1ncnc2sc3c(c12)CCC3`, for which the result was active. The same measure, in the same setting: as for `CC(C)(C)C1CCC(=NNc2ccc(S(N)(=O)=O)cc2[N+](=O)[O-])CC1` (stereo not given), the entry is “active”.

Still in this experiment, the particulars now being: EP2-expressing cells, PGE2 EC50 shift by compound; measured here: PGE2 EC50 at 6.7 uM compound.
For the molecule `COc1cnc(SCc2c(Cl)cccc2Cl)nc1Cl`, the PGE2 EC50 with compound worked out at 1.76 nM. The same measure, in the same setting: as for `CCCn1c(-c2cccs2)nc2c1c(=O)[nH]c(=O)n2Cc1ccccc1`, the figure is 2.78 nM; as for `Cc1cc(C)c2c(n1)sc1c(=O)n(Cc3ccccc3Cl)nnc12`, 0.92 nM; as for `Cc1cc2cc3c(cc2nc1SCC(=O)OC(C)C)OCO3`, 0.8 nM.

For `COC(=O)c1c(NC(=O)CSc2nnc(-c3ccco3)n2Cc2ccccc2)sc(C)c1C`, the PGE2 EC50 with compound turned out to be 0.85 nM.

As to `CCc1ccc2nc(-c3cccc(C)c3)nc(SCC(=O)NCC3CCCO3)c2c1` (stereo not given), the PGE2 EC50 with compound is 2.64 nM. On to `Clc1ccc(-c2nc3ccccn3c2CN2CCCCC2)cc1`, for which the PGE2 EC50 with compound is 1.26 nM.

Consider `CCOc1nc2cccc(C(=O)OC(C)OC(=O)OC3CCCCC3)c2n1Cc1ccc(-c2ccccc2-c2nn[nH]n2)cc1` (stereo not given), for which the PGE2 EC50 with compound amounted to 1.42 nM. As to `CCOC(=O)C1CCN(c2c(-c3ccccc3)c3cc(Cl)ccc3[nH]c2=O)CC1`, the PGE2 EC50 with compound is 1.03 nM. Same read-out and setting: as for `C=CCn1c(=O)c(C(=O)NCCc2ccccc2)c(O)c2ccccc21`, the figure is 2.43 nM. Same read-out and setting: then `O=S(Cc1cc(Sc2ccccc2)nc(-c2ccccc2)n1)c1ccccc1` (stereo not given), with 1.15 nM. The same measure, in the same setting: as for `CC(Cc1ccccc1)NC(=O)C1(c2ccccc2)CCOCC1` (stereo not given), the figure is 1.2 nM. Regarding `O=C1CCCc2ccccc2N1Cc1c(Cl)cccc1Cl`, the PGE2 EC50 with compound amounted to 1.04 nM. Same read-out and setting: then `CCOC(=O)c1sc2nc3c(SCC(=O)O)cc(C(=O)c4cc(F)ccc4O)cn3c(=O)c2c1C`, with 0.6 nM; and `CCOC(=O)c1c(NC(=O)c2ccncc2)sc(C)c1C`, with 1 nM. On the same count and under the same terms, as for `CC(C)CCn1c(Oc2ccc(Cl)cc2)nc2c1c(=O)n(C)c(=O)n2C`, the figure is 0.72 nM; as for `C=CCCC1(C)C(=O)N(c2ccccc2)c2ccccc21` (stereo not given), 1.2 nM; as for `CCC1(CC)Cc2ccccc2-c2nc(NCCO)[nH]c(=O)c21`, 1.25 nM.

Take `N#Cc1c(-c2ccco2)nc(SCC(=O)Nc2cccc(Cl)c2)[nH]c1=O`: the PGE2 EC50 with compound worked out at 1.15 nM. The same measure, in the same setting: as for `Cc1cccc(CSc2ncnc3ccccc23)c1`, the figure is 0.87 nM; as for `CCOC(=O)C1CCN(c2c(C(=O)c3ccccc3)cnc3ccc(CC)cc23)CC1`, 0.91 nM; as for `CCCn1c2ccccc2c2nc3ccccc3nc21`, 1.21 nM. Still for that read-out and setting: then `O=C(Nc1ccccc1)/C(=C/c1ccccc1)c1ccccc1`, with 2.56 nM.

For the molecule `CCOC(=O)c1c(NC(=O)CSC(=S)N(C)C)sc(C)c1C`, the PGE2 EC50 with compound was 0.86 nM. Turning to `Oc1c(Cl)cc(Cl)cc1Sc1cc(Cl)cc(Cl)c1O`, the PGE2 EC50 with compound turned out to be 0.58 nM.

In the case of `CCCC(=O)C1=C(O)C(C(=O)OC)C(C)(C)CC1=Nc1cccc2ccccc12` (stereo not given), the PGE2 EC50 with compound amounted to 1.53 nM. Still for that read-out and setting: as for `O=C(O)c1ccc(-c2ccccc2C(F)(F)F)o1`, the figure is 0.92 nM. Still for that read-out and setting: as for `Cc1ccc(/C=N/N(Cc2ccccc2)c2ccccc2)o1`, the figure is 0.92 nM; as for `C=CCSc1nccc(-c2cc(Cl)sc2Cl)n1`, 1.07 nM.

For the molecule `CCOc1ccc(C(C)=O)cc1CC(C(N)=O)C(N)=O`, the PGE2 EC50 with compound was found to be 1.11 nM. Still for that read-out and setting: as for `CN(C)c1ncc(S(=O)(=O)c2ccccc2)c(-c2ccccc2Cl)n1`, the figure is 0.72 nM; as for `Cn1cccc1/C=C1\CC(C(C)(C)C)C/C(=C\c2cccn2C)C1=O` (stereo not given), 1.44 nM. Regarding `CCc1ccccc1NC(=O)/C(=C/c1ccccc1)c1ccccc1`, the PGE2 EC50 with compound stood at 1.14 nM. Regarding `Cc1cc2ccccc2nc1SCC(=O)NC1CCCC1`, the PGE2 EC50 with compound turned out to be 1.4 nM.

As for `Cc1noc(C)c1CSc1nc2ccccc2c(=O)n1-c1ccc(F)cc1F`, the PGE2 EC50 with compound turned out to be 1.09 nM. Same read-out and setting: as for `C=CCSc1nc2ccccc2c(=O)n1Cc1ccccc1`, the figure is 0.72 nM; as for `O=C(Nc1ccccc1-c1nc2ccccc2s1)c1ccc(Br)o1`, 1.02 nM; as for `COc1ccc(-c2cc(C(F)(F)F)nc(NCc3ccco3)n2)cc1OC`, 0.53 nM.

With `CCc1ccccc1NC(=O)/C(=C/c1ccco1)c1ccccc1`, the PGE2 EC50 with compound was 1.58 nM. On the same count and under the same terms, then `CC1=CC2C(CC1=O)C(C)=CCC2C(C)C` (stereo not given), with 0.86 nM; and `Cc1ccc(CSc2ncnc3c2cnn3Cc2ccccc2)cc1C`, with 1.08 nM; and `CCOP(=O)(c1ccccc1)c1nc(-c2ccccc2Cl)oc1N1CCCCC1` (stereo not given), with 1.02 nM. With `O=c1[nH]c(N/N=C/c2ccccc2)nc2ccccc12`, the PGE2 EC50 with compound turned out to be 0.74 nM. As to `N#Cc1sc2nc(C3CC3)cc(-c3ccc(Cl)cc3)c2c1N`, the PGE2 EC50 with compound is 0.81 nM. Turning to `O=C(O)COc1cccc(NC(=O)c2ccccc2)c1`, the PGE2 EC50 with compound was 2.83 nM. The same measure, in the same setting: then `O=C(CSc1nc2ccccc2o1)Nc1ccccc1N1CCCCCC1`, with 0.78 nM; and `O=C(Nc1nc(-c2cccs2)c(-c2ccccc2)s1)c1ccco1`, with 2.42 nM. For the molecule `CC(=O)N(c1cccc(Br)c1)C1C=CS(=O)(=O)C1` (stereo not given), the PGE2 EC50 with compound was 0.98 nM. Still for that read-out and setting: then `CCn1c(=S)[nH]c2c(c1=O)C(C)(C)Cc1ccccc1-2`, with 0.76 nM; and `C=CCn1c(SCc2c(C)noc2C)nc2sc(C)c(C)c2c1=O`, with 0.62 nM; and `CCCn1c(C)nc2c(c1=O)c1nc3ccccc3nc1n2CCC1=CCCCC1`, with 1.42 nM. `CCC1Oc2ccc(C)cc2N(Cc2cccc(C)c2)C1=O` (stereo not given): the PGE2 EC50 with compound was determined as 1.24 nM. On the same count and under the same terms, as for `Fc1ccccc1Nc1nc2c(s1)CCc1ccccc1-2`, the figure is 1.03 nM. On the same count and under the same terms, then `CC(C)NC(=S)NN=C1CCCCCCCCCCC1`, with 0.97 nM.

For `Cc1cc(OCC(=O)OC(C)C)c2c3c(c(=O)oc2c1)CCCC3`, the PGE2 EC50 with compound worked out at 0.81 nM.

In the case of `Cc1cccc(-n2c(=S)[nH]c3c(oc4ccccc43)c2=O)c1`, the PGE2 EC50 with compound came to 2.78 nM. Still for that read-out and setting: as for `O=c1c(O)c(-c2ccccc2)oc2ccc3occc3c12`, the figure is 0.74 nM. For the molecule `O=c1cc(N2CCCCC2)c(-c2ccccc2)nn1Cc1ccc(F)cc1`, the PGE2 EC50 with compound came to 2.5 nM. Consider `CCN(CC)c1nc(C#N)nc(N(CC)CC)n1`, for which the PGE2 EC50 with compound came out at 0.95 nM. Consider `CC(=O)c1ccc(S(=O)(=O)NCCCC(=O)NCCc2ccccn2)cc1`, for which the PGE2 EC50 with compound came to 1.15 nM. Still for that read-out and setting: then `CCC(C)(C)n1nnnc1C(c1ccncc1)N1CCC(Cc2ccccc2)CC1` (stereo not given), with 1.85 nM; and `O=S1(=O)N=C(N(CCO)/N=C/C=C/c2ccccc2)c2ccccc21`, with 2.08 nM; and `CC1(c2ccccc2)CC(C)(C)N(C(=O)C2CCCO2)c2ccccc21` (stereo not given), with 0.9 nM. On the same count and under the same terms, then `CCn1c2ccc(Cl)cc2c2nc3ccccc3nc21`, with 0.98 nM; and `O=c1c2oc3ccccc3c2[nH]c(=S)n1-c1ccccc1`, with 1.25 nM; and `FC(F)(F)c1cccc(-c2cc3ccccc3nc2N2CCCC2)c1`, with 1.36 nM. Consider `Cc1noc(C)c1COC(=O)C(c1ccccc1)c1ccccc1`, for which the PGE2 EC50 with compound stood at 1.27 nM.

With `COc1cc2ccccc2cc1C(=O)NC(=S)Nc1cccc(C(=O)O)c1`, the PGE2 EC50 with compound was 0.75 nM. Consider `O=C1CCCc2ccccc2N1Cc1cccc(Cl)c1`, for which the PGE2 EC50 with compound came out at 2.62 nM. On to `N#Cc1c(-c2cccs2)nc(SCc2ccc(Cl)cc2)[nH]c1=O`, for which the PGE2 EC50 with compound is 2.85 nM. `OCCCNc1nc(-c2ccc(Cl)cc2)nnc1-c1ccc(Br)cc1`: the PGE2 EC50 with compound is 1.11 nM. As for `O=C(Nc1ccccc1)c1nn(-c2cccc(C(F)(F)F)c2)ccc1=O`, the PGE2 EC50 with compound came to 2.72 nM. The same measure, in the same setting: then `C/C(CCc1oc2ccccc2c1-c1ccc(C)o1)=N/O`, with 0.95 nM; and `O=C(Nc1cc(S(=O)(=O)Nc2ccc(Cl)cc2)ccc1N1CCCCC1)c1ccc(F)cc1Cl`, with 0.87 nM.

On to `Cc1cc(C(=O)CSc2nc3ccccc3c(=O)n2C)c(C)n1Cc1ccc2c(c1)OCO2`, for which the PGE2 EC50 with compound came out at 3.33 nM. Still for that read-out and setting: as for `Brc1ccc(Cn2c(-c3cncs3)nc3ccccc32)cc1`, the figure is 1.66 nM. On to `C=CCC1(C)C(=O)N(c2ccccc2)c2ccccc21` (stereo not given), for which the PGE2 EC50 with compound stood at 2.93 nM. `Cc1noc(C)c1CSc1ncnc2sc3c(c12)CCC3`: the PGE2 EC50 with compound was 0.87 nM.

Regarding `CCOC(=O)CN(C(=O)CSc1nnc(Cc2ccccc2)n1-c1ccc(C)cc1)c1ccccc1`, the PGE2 EC50 with compound stood at 1.48 nM.

Regarding `O=c1[nH]ncc2c3ccccc3n(Cc3cccc(Cl)c3)c12`, the PGE2 EC50 with compound was 0.98 nM.

As to `COC(=O)c1ccc(CSc2ncnc3c2oc2ccccc23)o1`, the PGE2 EC50 with compound was determined as 2.45 nM. Same read-out and setting: as for `Cc1ccccc1Nc1c(-c2ccccn2)nc2ccccn12`, the figure is 1.55 nM. Same read-out and setting: then `CC(C)(C)C1CCC(=NNc2ccc(S(N)(=O)=O)cc2[N+](=O)[O-])CC1` (stereo not given), with 1.01 nM.

`Cn1c(=O)[nH]c(=O)c2c1nc(CN1CCN(c3ccccc3F)CC1)n2CCCc1ccccc1`: the PGE2 EC50 with compound stood at 0.83 nM. On the same count and under the same terms, then `CN(Cc1ccccc1)c1nc2c(c(=O)[nH]c(=O)n2C)n1Cc1ccccc1Cl`, with 1.05 nM. On to `CSc1ncnc2sc(C)c(C)c12`, for which the PGE2 EC50 with compound was 1.22 nM. On to `Cc1cc(-c2sccc2C)nc(-n2cccc2)n1`, for which the PGE2 EC50 with compound amounted to 2.5 nM.

Regarding `Cc1cc2ccc(C)c(C)c2nc1SCC#N`, the PGE2 EC50 with compound is 1.18 nM. As for `CSc1nc(Sc2ccccc2)c2ccccc2n1`, the PGE2 EC50 with compound came out at 1.6 nM. As to `N#CCCSc1ncnc2c1oc1ccccc12`, the PGE2 EC50 with compound was 1.52 nM. Same read-out and setting: then `COc1ccc(-c2cc(C(F)(F)F)nc(NC3CCCC3)n2)cc1OC`, with 0.7 nM.

As to `COc1cc(/C=C/c2ccc3cccc([N+](=O)[O-])c3n2)ccc1OCC(=O)O`, the PGE2 EC50 with compound was 1.64 nM.

As for `FC(F)(F)c1nc(=S)c2ccccc2[nH]1`, the PGE2 EC50 with compound turned out to be 2.84 nM.
